Experimental data reported in paper PMC7413254 (Nature Communications, 2020).
Like-named read-outs stand apart in the source and are kept apart here.

Assays:
PfCRT^Ecu1110 [1] = target: T1, PfCRT^Ecu1110 (Plasmodium falciparum, UniProt Q9N623, A220S/I356L/K76T/N326D); assay: [3H]CQ uptake into Xenopus oocytes, cis-inhibition by unlabelled solute; format: cell-based; settings: for Uptake of [3H]CQ (% PfCRTEcu1110 control), cis-inhibition / PfCRT-mediated [3H]CQ transport, cis-inhibition (% PfCRTEcu1110 control): PfCRTEcu1110 oocytes; for Uptake of [3H]CQ (% PfCRTEcu1110 control), cis-inhibition: total [3H]CQ transport, normalised to the oocyte type control; for PfCRT-mediated [3H]CQ transport, cis-inhibition (% PfCRTEcu1110 control): background [3H]CQ accumulation subtracted, normalised to oocyte type control
How it was run: (§1)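 Washed oocytes (ten per treatment) were exposed to label in pH 5.5 ND96 for 1.5 h at 27.5 °C. Buffer was then removed, cells rinsed in ice-cold ND96, lysed in SDS and counted.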

PfCRT^Dd2 [2] = target: T2, PfCRT^Dd2 (Plasmodium falciparum, UniProt Q9N623, A220S/I356T/K76T/M74I/N326S/N75E/Q271E/R371I); assay: as above; format: cell-based; settings: PfCRTDd2 oocytes, background [3H]CQ accumulation subtracted, normalised to oocyte type control
How it was run: as §1

non-expressing oocytes [3] = format: cell-based, Xenopus laevis; settings: non-expressing oocytes, total [3H]CQ transport, normalised to the oocyte type control
How it was run: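 Oocytes (ten per treatment, ≥4 independent frogs/days) were preloaded by injecting VF-6 in 25 nL ND96 at pH 5.0, 5.5, 6.0 or 7.0, or Na^+-free choline buffer, then uptake run 1.5 h, 27.5 °C, ND96 pH 5.5 by default. Internal concentrations assumed ~400 nL oocyte volume.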

PfCRT^Ecu1110 [4] = target: T1, PfCRT^Ecu1110; assay: cell-based; format: cell-based; settings: for PfCRT-mediated [3H]CQ transport, trans-stimulation (% PfCRTEcu1110 control): normalised to oocyte type control; for [3H]CQ transport (% PfCRTDd2 control), trans-stimulation, PfCRTEcu1110: PfCRT-mediated component (background subtracted), sheet title says normalised to PfCRTDd2 control, mean ± SEM, SEM
How it was run: (§2)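 Transport measured in Xenopus oocytes expressing the transporters, 1.5 h at 27.5 °C in ND96 pH 5.5 unless noted. For trans-stimulation, VF-6 injected in 25 nL ND96 at pH 5.0–7.0 or Na^+-free (choline) buffer; intracellular levels based on ~400 nL oocyte volume. Ten oocytes per treatment, ≥4 experiments.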

PfCRT^3D7 [5] = target: T3, PfCRT^3D7 (Plasmodium falciparum, UniProt Q8IBZ9); assay: cell-based; format: cell-based; settings: for Uptake of [3H]CQ (% PfCRT3D7 control), trans-stimulation / PfCRT-mediated [3H]CQ transport, trans-stimulation (% PfCRT3D7 control): PfCRT3D7 oocytes; for Uptake of [3H]CQ (% PfCRT3D7 control), trans-stimulation: total [3H]CQ transport, normalised to the oocyte type control; for PfCRT-mediated [3H]CQ transport, trans-stimulation (% PfCRT3D7 control): normalised to oocyte type control
How it was run: as §2

PfCRT^Dd2 [6] = target: T2, PfCRT^Dd2; assay: cell-based; format: cell-based; settings: for Uptake of [3H]CQ (% PfCRTDd2 control), trans-stimulation / PfCRT-mediated [3H]CQ transport, trans-stimulation (% PfCRTDd2 control): PfCRTDd2 oocytes; for Uptake of [3H]CQ (% PfCRTDd2 control), trans-stimulation: total [3H]CQ transport, normalised to the oocyte type control; for PfCRT-mediated [3H]CQ transport, trans-stimulation (% PfCRTDd2 control): normalised to oocyte type control; for [3H]CQ transport (% PfCRTDd2 control), trans-stimulation, PfCRTDd2: PfCRT-mediated component (background subtracted), mean ± SEM, SEM
How it was run: as §2

PfNT1 = target: T4, PfNT1 (Plasmodium falciparum, UniProt Q8IDM6); assay: cell-based; format: cell-based; settings: PfNT1 oocytes, total [3H]CQ transport, normalised to the oocyte type control
T4 construct: expressed in transfected cells; host or cells: Xenopus laevis oocytes (stage V-VI), cRNA-injected
How it was run: as §2

PfCRT^3D7 [7] = target: T3, PfCRT^3D7; assay: cell-based; format: cell-based; settings: PfCRT3D7 oocytes, total [3H]CQ transport, normalised to the oocyte type control
How it was run: as §1

non-expressing oocytes [8] = assay: cells; format: cell-based, Xenopus laevis; settings: non-expressing oocytes, total [3H]CQ transport, normalised to the oocyte type control
How it was run: as §1

[9] = [test solute]i = 45 mM (30 mM for some solutes due to solubility)
[10] = [test solute]i = 5 mM (injected)
[11] = [test solute]i = 5 mM (intracellular)
[12] = [test solute]i = 45 mM (intracellular; 30 mM for some solutes due to solubility)

T1 sequence (Q9N623 whole entry A220S/I356L/K76T/N326D): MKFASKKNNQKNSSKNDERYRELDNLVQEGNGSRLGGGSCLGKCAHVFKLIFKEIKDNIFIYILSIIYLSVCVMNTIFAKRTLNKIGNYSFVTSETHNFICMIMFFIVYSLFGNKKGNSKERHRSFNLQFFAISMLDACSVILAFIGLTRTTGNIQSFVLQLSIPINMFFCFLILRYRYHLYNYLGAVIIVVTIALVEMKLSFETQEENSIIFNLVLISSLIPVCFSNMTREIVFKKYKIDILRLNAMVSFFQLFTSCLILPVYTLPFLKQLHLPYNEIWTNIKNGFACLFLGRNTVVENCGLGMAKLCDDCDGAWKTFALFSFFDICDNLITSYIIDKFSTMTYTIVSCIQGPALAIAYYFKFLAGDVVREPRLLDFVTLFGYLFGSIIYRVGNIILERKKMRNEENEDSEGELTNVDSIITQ
T3 sequence (Q8IBZ9 59-398): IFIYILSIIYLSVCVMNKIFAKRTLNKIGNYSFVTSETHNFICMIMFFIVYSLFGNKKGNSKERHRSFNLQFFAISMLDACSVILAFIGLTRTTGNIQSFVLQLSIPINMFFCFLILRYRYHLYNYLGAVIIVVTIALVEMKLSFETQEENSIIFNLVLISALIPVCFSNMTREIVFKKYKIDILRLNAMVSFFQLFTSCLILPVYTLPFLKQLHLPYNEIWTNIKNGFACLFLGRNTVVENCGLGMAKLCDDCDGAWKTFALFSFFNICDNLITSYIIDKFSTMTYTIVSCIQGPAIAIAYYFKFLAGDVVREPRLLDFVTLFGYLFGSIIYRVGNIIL
T2 sequence (Q9N623 whole entry A220S/I356T/K76T/M74I/N326S/N75E/Q271E/R371I): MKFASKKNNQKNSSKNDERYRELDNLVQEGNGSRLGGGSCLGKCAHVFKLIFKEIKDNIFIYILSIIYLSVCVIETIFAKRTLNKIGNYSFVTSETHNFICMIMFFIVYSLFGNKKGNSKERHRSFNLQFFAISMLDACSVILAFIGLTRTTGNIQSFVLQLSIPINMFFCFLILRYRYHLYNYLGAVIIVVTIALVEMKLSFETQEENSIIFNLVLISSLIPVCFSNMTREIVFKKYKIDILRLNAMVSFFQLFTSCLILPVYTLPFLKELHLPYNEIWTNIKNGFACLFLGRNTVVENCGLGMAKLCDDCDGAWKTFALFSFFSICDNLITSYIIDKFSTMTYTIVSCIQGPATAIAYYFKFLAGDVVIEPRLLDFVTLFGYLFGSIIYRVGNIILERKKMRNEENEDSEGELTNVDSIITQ
T4 sequence (Q8IDM6 whole entry): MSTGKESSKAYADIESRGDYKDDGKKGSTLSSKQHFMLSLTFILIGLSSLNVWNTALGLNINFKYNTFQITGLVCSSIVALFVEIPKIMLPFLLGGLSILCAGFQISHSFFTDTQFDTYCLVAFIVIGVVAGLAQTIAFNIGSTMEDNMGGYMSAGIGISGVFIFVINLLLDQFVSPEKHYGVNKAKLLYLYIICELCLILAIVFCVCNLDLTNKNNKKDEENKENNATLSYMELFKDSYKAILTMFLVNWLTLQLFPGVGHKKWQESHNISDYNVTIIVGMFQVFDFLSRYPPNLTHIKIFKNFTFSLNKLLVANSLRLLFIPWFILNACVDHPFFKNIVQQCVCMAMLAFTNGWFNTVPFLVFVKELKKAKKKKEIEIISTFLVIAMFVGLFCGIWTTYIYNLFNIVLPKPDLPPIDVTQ

Substance: HVDD [HD-4]
- Uptake of [3H]CQ (% PfCRTEcu1110 control), cis-inhibition (PfCRT^Ecu1110 [1]; [test solute] = 0.5 mM): 53 ± 8.3 % PfCRTEcu1110 control
- Uptake of [3H]CQ (% PfCRTEcu1110 control), cis-inhibition (PfCRT^Ecu1110 [1]; [test solute] = 1 mM): 44 ± 6.1 % PfCRTEcu1110 control
- Uptake of [3H]CQ (% PfCRTEcu1110 control), cis-inhibition (PfCRT^Ecu1110 [1]; [test solute] = 2 mM): 32 ± 4.7 % PfCRTEcu1110 control
- PfCRT-mediated [3H]CQ transport, cis-inhibition (% PfCRTEcu1110 control) (PfCRT^Ecu1110 [1]; [test solute] = 0.5 mM): 49 ± 1.4 % PfCRTEcu1110 control
- PfCRT-mediated [3H]CQ transport, cis-inhibition (% PfCRTEcu1110 control) (PfCRT^Ecu1110 [1]; [test solute] = 1 mM): 39 ± 3.1 % PfCRTEcu1110 control
- PfCRT-mediated [3H]CQ transport, cis-inhibition (% PfCRTEcu1110 control) (PfCRT^Ecu1110 [1]; [test solute] = 2 mM): 28 ± 1.3 % PfCRTEcu1110 control
- [3H]CQ transport (% PfCRTEcu1110 control), cis-inhibition, PfCRTEcu1110 (PfCRT^Ecu1110 [1]; cis-inhibition, [test solute] = 2 mM, PfCRT-mediated component (background subtracted), sheet title says normalised to PfCRTDd2 control, mean ± SEM, SEM): 9.0 ± 0.03 % PfCRTEcu1110 control
- PfCRT-mediated [3H]CQ transport, cis-inhibition (% PfCRTDd2 control) (PfCRT^Dd2 [2]; [test solute] = 0.5 mM): 44 ± 2.3 % PfCRTDd2 control
- PfCRT-mediated [3H]CQ transport, cis-inhibition (% PfCRTDd2 control) (PfCRT^Dd2 [2]; [test solute] = 1 mM): 31 ± 1.0 % PfCRTDd2 control
- PfCRT-mediated [3H]CQ transport, cis-inhibition (% PfCRTDd2 control) (PfCRT^Dd2 [2]; [test solute] = 2 mM): 19 ± 0.8 % PfCRTDd2 control
- Uptake of [3H]CQ (% non-expressing oocyte control), trans-stimulation (non-expressing oocytes [3]; [test solute]i = 5 mM): 100 ± 3.6 % non-expressing oocyte control
- Uptake of [3H]CQ (% non-expressing oocyte control), trans-stimulation (non-expressing oocytes [3]; [9]): 98 ± 3.3 % non-expressing oocyte control
- Uptake of [3H]CQ (% PfCRTEcu1110 control), trans-stimulation (PfCRT^Ecu1110 [4]; PfCRTEcu1110 oocytes, [test solute]i = 45 mM (30 mM for some solutes due to solubility), total [3H]CQ transport, normalised to the oocyte type control): 99 ± 3.2 % PfCRTEcu1110 control
- PfCRT-mediated [3H]CQ transport, trans-stimulation (% PfCRTEcu1110 control) (PfCRT^Ecu1110 [4]; [test solute]i = 5 mM (intracellular), PfCRTEcu1110 oocytes): 99 ± 4.9 % PfCRTEcu1110 control
- PfCRT-mediated [3H]CQ transport, trans-stimulation (% PfCRTEcu1110 control) (PfCRT^Ecu1110 [4]; [test solute]i = 45 mM (intracellular; 30 mM for some solutes due to solubility), PfCRTEcu1110 oocytes): 97 ± 4.8 % PfCRTEcu1110 control
- [3H]CQ transport (% PfCRTDd2 control), trans-stimulation, PfCRTEcu1110 (PfCRT^Ecu1110 [4]; [10]): 30 ± 1.6 % PfCRTEcu1110 control
- [3H]CQ transport (% PfCRTDd2 control), trans-stimulation, PfCRTEcu1110 (PfCRT^Ecu1110 [4]; [9]): 29 ± 1.5 % PfCRTEcu1110 control
- Uptake of [3H]CQ (% PfCRT3D7 control), trans-stimulation (PfCRT^3D7 [5]; [test solute]i = 5 mM): 98 ± 4.1 % PfCRT3D7 control
- Uptake of [3H]CQ (% PfCRT3D7 control), trans-stimulation (PfCRT^3D7 [5]; [9]): 96 ± 1.7 % PfCRT3D7 control
- [3H]CQ transport (% PfCRT3D7 control), trans-stimulation, PfCRT3D7 (PfCRT^3D7 [5]; SEM): 0.1 ± 0.01
- PfCRT-mediated [3H]CQ transport, trans-stimulation (% PfCRT3D7 control) (PfCRT^3D7 [5]; [11]): 96 ± 3.3 % PfCRT3D7 control
- PfCRT-mediated [3H]CQ transport, trans-stimulation (% PfCRT3D7 control) (PfCRT^3D7 [5]; [12]): 94 ± 4.9 % PfCRT3D7 control
- Uptake of [3H]CQ (% PfCRTDd2 control), trans-stimulation (PfCRT^Dd2 [6]; [test solute]i = 5 mM): 99 ± 4.3 % PfCRTDd2 control
- Uptake of [3H]CQ (% PfCRTDd2 control), trans-stimulation (PfCRT^Dd2 [6]; [9]): 100 ± 2.4 % PfCRTDd2 control
- PfCRT-mediated [3H]CQ transport, trans-stimulation (% PfCRTDd2 control) (PfCRT^Dd2 [6]; [11]): 97 ± 2.9 % PfCRTDd2 control
- PfCRT-mediated [3H]CQ transport, trans-stimulation (% PfCRTDd2 control) (PfCRT^Dd2 [6]; [12]): 98 ± 3.9 % PfCRTDd2 control
- [3H]CQ transport (% PfCRTDd2 control), trans-stimulation, PfCRTDd2 (PfCRT^Dd2 [6]; [10]): 97 ± 2.9 % PfCRTDd2 control
- [3H]CQ transport (% PfCRTDd2 control), trans-stimulation, PfCRTDd2 (PfCRT^Dd2 [6]; [9]): 98 ± 3.9 % PfCRTDd2 control
- Uptake of [3H]CQ (% PfNT1 control), trans-stimulation (PfNT1; [test solute]i = 5 mM): 100 ± 2.7 % PfNT1 control
- Uptake of [3H]CQ (% PfNT1 control), trans-stimulation (PfNT1; [9]): 99 ± 2.5 % PfNT1 control
- Uptake of [3H]CQ (% PfCRT3D7 control), cis-inhibition (PfCRT^3D7 [7]; [test solute] = 0.5 mM): 100 ± 3.8 % PfCRT3D7 control
- Uptake of [3H]CQ (% PfCRT3D7 control), cis-inhibition (PfCRT^3D7 [7]; [test solute] = 1 mM): 102 ± 3.7 % PfCRT3D7 control
- Uptake of [3H]CQ (% PfCRT3D7 control), cis-inhibition (PfCRT^3D7 [7]; [test solute] = 2 mM): 99 ± 3.6 % PfCRT3D7 control
- Uptake of [3H]CQ (% non-expressing oocyte control), cis-inhibition (non-expressing oocytes [8]; [test solute] = 0.5 mM): 99 ± 5.3 % non-expressing oocyte control
- Uptake of [3H]CQ (% non-expressing oocyte control), cis-inhibition (non-expressing oocytes [8]; [test solute] = 1 mM): 100 ± 5.2 % non-expressing oocyte control
- Uptake of [3H]CQ (% non-expressing oocyte control), cis-inhibition (non-expressing oocytes [8]; [test solute] = 2 mM): 97 ± 5.5 % non-expressing oocyte control
